Values quoted from earlier work, collected in patent US4239780A, “Phospholipase A2 inhibition” (The Upjohn Company, priority 1979, dated 1980).

Test system: phospholipase A2 from venom of Russel Viper
Conditions: enzyme from Russel Viper venom; cited from earlier work

COc1ccc2c(c1)c(CC(=O)O)c(C)n2C(=O)c1ccc(Cl)cc1 [indomethacin, Indomethacin]
inhibition of phospholipase A2: inactive
